Where two headings read alike, the source gives them in different places.
Tests used:
Format in all cases: biochemical
[1] = biological target: T1, Human recombinant Monoamine Oxidase A (Homo sapiens, UniProt P21397); assay: MAOs inhibitory assay (fluorescence-based microplate), MAO-A; details: for SI (selectivity index): SI = (IC50 of MAO-B)/(IC50 of MAO-A); for IC50: recombinant enzyme
T1 construct: purchased Sigma Aldrich M7316
T1 sequence (P21397 1-527): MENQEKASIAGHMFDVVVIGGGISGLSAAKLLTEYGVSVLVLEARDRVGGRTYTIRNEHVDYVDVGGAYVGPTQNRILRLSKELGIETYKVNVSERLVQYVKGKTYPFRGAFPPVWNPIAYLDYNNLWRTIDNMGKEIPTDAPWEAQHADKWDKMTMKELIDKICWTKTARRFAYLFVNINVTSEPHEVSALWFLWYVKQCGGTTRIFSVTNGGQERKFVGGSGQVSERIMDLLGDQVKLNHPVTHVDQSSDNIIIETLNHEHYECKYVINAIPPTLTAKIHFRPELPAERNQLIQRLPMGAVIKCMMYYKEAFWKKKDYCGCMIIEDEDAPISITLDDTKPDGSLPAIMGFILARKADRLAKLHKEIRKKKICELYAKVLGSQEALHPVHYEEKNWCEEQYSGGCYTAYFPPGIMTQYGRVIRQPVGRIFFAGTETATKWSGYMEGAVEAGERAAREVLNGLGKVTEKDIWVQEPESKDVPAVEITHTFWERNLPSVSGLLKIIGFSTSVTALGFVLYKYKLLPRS
Protocol: (§1) All of these compounds were evaluated for their inhibitory abilities towards MAOs. The inhibition activities against MAO-A and MAO-B of the synthesized compounds were investigated by our reported method.
(§2) Silica gel (100–200 mesh, Qingdao Haiyang Chemical Co., Qingdao, China) was used for flash column chromatography. Analytical thin-layer chromatography was performed with GF254 silica gel. ^1H-NMR spectra were recorded on a Bruker Avance 300 MHz apparatus. HR-ESI-MS and HR-EI analysis were measured on a Bruker micrOTOF-QII and Waters GCT Premier GC-TOF-MS spectrometer, respectively. All chemicals were purchased from the Eastern China Chemical Co (Hangzhou, China). All fluorescent data was recorded on Spectrum M2 (Molecular Device Company). Human recombinant Monoamine Oxidase A (M7316) and B (M7441) (5 mg/mL) were purchased from Sigma Aldrich. Pierce BCA protein assay kit (23227) was purchased from Thermo Scientific.
(§3) MAO IC50 values were determined using our reported fluorescence-based microplate assay. […] The fluorescent signals were measured at λex 360 nm and λem 460 nm on a Spectrum-M2 spectrofluorometer.

[2] = biological target: T2, Human recombinant Monoamine Oxidase B (Homo sapiens, UniProt P27338); assay: MAOs inhibitory assay (fluorescence-based microplate), MAO-B; details: recombinant enzyme; inhibitor incubated 37 °C 3 h, borate buffer pH 8.4; mean IC50
T2 construct: purchased Sigma Aldrich M7441
T2 sequence (P27338 1-520): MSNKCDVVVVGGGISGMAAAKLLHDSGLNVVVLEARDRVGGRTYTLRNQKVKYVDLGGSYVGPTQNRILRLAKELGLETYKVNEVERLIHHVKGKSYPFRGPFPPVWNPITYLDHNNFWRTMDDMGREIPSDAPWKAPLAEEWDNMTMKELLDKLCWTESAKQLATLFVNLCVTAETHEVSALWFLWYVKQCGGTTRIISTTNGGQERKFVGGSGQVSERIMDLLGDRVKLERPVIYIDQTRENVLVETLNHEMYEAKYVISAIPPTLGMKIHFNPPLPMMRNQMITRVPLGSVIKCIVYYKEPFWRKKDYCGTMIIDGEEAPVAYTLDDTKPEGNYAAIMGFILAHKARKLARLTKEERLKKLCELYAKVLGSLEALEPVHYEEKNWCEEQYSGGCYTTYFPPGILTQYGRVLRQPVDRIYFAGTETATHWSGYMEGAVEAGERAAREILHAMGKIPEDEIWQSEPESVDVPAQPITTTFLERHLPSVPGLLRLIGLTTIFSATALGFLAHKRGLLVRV
Protocol: as §1, §2, §3

[3] = biological target: T3, MAO-A (Homo sapiens, UniProt P21397); assay: Reversibility of MAO-A inhibition (repeated washing method); details: for inhibition at 0.1 µM: inhibitor 100 nM; for reversibility of MAO-A inhibition: repeated washing method
T3 construct: purchased Sigma Aldrich M7316
T3 sequence (P21397 1-527): T1 sequence (P21397 1-527)
Protocol: (§4) Reversibility of the MAO inhibition with derivatives of acetamides was evaluated by a reported method. […] After incubating for 2 h, an aliquot was stored at 4 °C for the measurement of MAO-A and -B activity. The remaining reaction solution was placed in an Ultrafree-0.5 centrifugal tube with a 30 kDa Biomax membrane (Millipore) and centrifuged at 9000 g for 20 min at 4 °C. The enzyme retained in the membrane was resuspended in a sodium phosphate buffer and centrifuged two successive times. Then, the enzyme retained in the membrane was resuspended in PBS ([…]) and an aliquot of this suspension was used for MAO-A and -B activity measurement. In order to define 100% MAO activity, control experiments were performed simultaneously by replacing the inhibitors with appropriate dilutions of the vehicles. The corresponding values of percent MAO isoforms inhibition (with and without repeated washing) were calculated based on the control experiments.

[4] = biological target: T4, MAO-B (Homo sapiens, UniProt P27338); assay: Reversibility of MAO-B inhibition (repeated washing method); details: for inhibition at 0.1 µM: inhibitor 100 nM; for reversibility of MAO-B inhibition: repeated washing method
T4 construct: purchased Sigma Aldrich M7441
T4 sequence (P27338 1-520): T2 sequence (P27338 1-520)
Protocol: as §4

[5] = biological target: T5, native MAO-A in SH-SY5Y (neuroblastoma cells) lysate (Homo sapiens, UniProt P21397); assay: MAO inhibitory activity in SH-SY5Y cell lysate (endogenous MAO-A); details: for IC50: SH-SY5Y lysate (only endogenous MAO-A activity), repeated three times; for times more potent in SH-SY5Y lysate relative to HepG2 lysate: ratio of lysate IC50 values (HepG2/SH-SY5Y)
T5 construct: endogenous in cells; host or cells: SH-SY5Y (neuroblastoma cells) lysate
T5 sequence (P21397 1-527): T1 sequence (P21397 1-527)
Protocol: (§5) Compounds 12, 21, 22, 25 were chosen for comparison due to their excellent inhibitory activities, and the results were shown in Table 2. […] This is most likely due to the instability of imine group in cell lysates.
as §3
(§6) Cells were cultured at 37 °C and 5% CO2 in RPMI-1640 media containing 100 units/mL penicillin, 100 μg/mL streptomycin, and 10% FBS. For lysis, cells were resuspended at 5 × 10^7 cells/mL in lysis buffer (42.3 mM PBS, 126 mM NaCl, 1.27 mM MgCl2, 0.85 mM EDTA, 1 mM PMSF, 0.95% Triton X-100, 9.5% glycerol, 4% 25× complete protease inhibitor, pH 7.4). The cells were vortexed to mix and keep on ice for 30 min, and then sonicated to break the cells (180 watts). The cell lysate was then clarified by ultracentrifugation at 4 °C for 30 min at 45,000. Total protein concentration was determined via a Bradford Protein Assay Kit (Bio-Rad) and cell lysates were stored at −80 °C until further use.

[6] = biological target: T6, native MAO-B in HepG2 (human hepatocellular liver carcinoma cell) lysate (Homo sapiens, UniProt P27338); assay: MAO inhibitory activity in HepG2 cell lysate (endogenous MAO-B); details: HepG2 lysate (only endogenous MAO-B activity); repeated three times
T6 construct: endogenous in cells; host or cells: HepG2 (human hepatocellular liver carcinoma cell) lysate
T6 sequence (P27338 1-520): T2 sequence (P27338 1-520)
Protocol: as §5, §3, §6

[7] = inhibitor incubated 37 °C 3 h, borate buffer pH 8.4, mean IC50, read-out: IC50 (μM) MAO-A
[8] = after repeated washing, read-out: MAO-A Inhibiton (%) After Washing
[9] = before washing, read-out: MAO-A Inhibiton (%) Before Washing

Row | SMILES | SI (selectivity index) [1] | IC50 [1, 7] | IC50 [2] | also measured
1 | NC(=O)COc1ccccc1 [Compound 1] | 11.27 | 69 µM | 778 µM | 
2 | NC(=O)COc1ccc2ccccc2c1 [Compound 2] | 3.64 | 149 µM | 542 µM | 
3 | NC(=O)COc1ccc(F)cc1 [Compound 3] | 2.77 | 92 µM | 255 µM | 
4 | NC(=O)COc1ccc(Cl)cc1 [Compound 4] | 0.41 | 490 µM | 202 µM | 
5 | NC(=O)COc1ccccc1Cl [Compound 5] | 7.08 | 98 µM | 694 µM | 
6 | NC(=O)COc1ccc(C=O)cc1 [Compound 6] | 5.13 | 89 µM | 457 µM | 
7 | NC(=O)COc1ccccc1C=O [Compound 7] | 3.94 | 142 µM | 559 µM | 
8 | Cc1ccc(OCC(N)=O)cc1C [Compound 8] | 4.73 | 113 µM | 534 µM | 
9 | Cc1ccccc1OCC(N)=O [Compound 9] | 25.5 | 26 µM | 663 µM | 
10 | Cc1ccc(OCC(N)=O)cc1 [Compound 10] | 180 | 3 µM | 541 µM | 
11 | COc1ccccc1OCC(N)=O [Compound 11] | 8.07 | 96 µM | 775 µM | 
12 | COc1ccc(OCC(N)=O)cc1 [Compound 12, 2-(4-Methoxyphenoxy)acetamide] | 245 | 4 µM | 980 µM | enzyme activity recovered after repeated washing (MAO-A) ([3]; after repeated washing): more than 80%; inhibition at 0.1 µM [3, 8]: 12.5%; inhibition at 0.1 µM [3, 9]: 88.7%; reversibility of MAO-A inhibition [3]: reversible; enzyme activity recovered after repeated washing (MAO-B) ([4]; after repeated washing): more than 80%; inhibition at 0.1 µM ([4]; after repeated washing, read-out: MAO-B Inhibiton (%) After Washing): 8.6%; inhibition at 0.1 µM ([4]; before washing, read-out: MAO-B Inhibiton (%) Before Washing): 96.9%; reversibility of MAO-B inhibition [4]: reversible; IC50 [5]: 5.4 µM
13 | NC(=O)COc1ccccc1C(=O)O [Compound 13] | 0.82 | 217 µM | 177 µM | 
14 | COC(=O)c1ccccc1OCC(N)=O [Compound 14] | 0.91 | 108 µM | 98 µM | 
15 | CC(C)(C)OC(=O)Nc1ccc(OCC(N)=O)cc1 [Compound 15] | 1.51 | 196 µM | 296 µM | 
16 | CC(=O)Nc1ccc(OCC(N)=O)cc1 [Compound 16] | 9.07 | 61 µM | 553 µM | 
17 | NC(=O)CSc1ccccc1 [Compound 17] | 3.87 | 166 µM | 642 µM | 
18 | Cc1ccc(SCC(N)=O)cc1C [Compound 18] |  | 292 µM | 366 µM | 
19 | NC(=O)COc1ccc(C2=NCCN2)cc1 [Compound 19] | 8.30 | 61 µM | 506 µM | 
20 | NC(=O)COc1ccccc1C1=NCCN1 [Compound 20] | 3.84 | 186 µM | 714 µM | 
21 | C#CCN=Cc1ccc(OCC(N)=O)cc1 [Compound 21, 2-(4-((prop-2-ynylimino)methyl)phenoxy)acetamide] | 4.22 |  | 0.076 µM | IC50 ([1]; read-out: IC50 value (MAO-A)): 0.018 µM; IC50 [6]: 0.41 µM; IC50 [5]: 0.18 µM; times more potent in SH-SY5Y lysate relative to HepG2 lysate [5]: 2.3 times
22 | NC(=O)COc1ccc(C=NCc2ccccc2)cc1 [Compound 23] | 5.99 | 96 µM | 575 µM | 
23 | C#CCN=Cc1ccccc1OCC(N)=O [Compound 25] | 2.59 | 0.068 µM | 0.176 µM | IC50 [6]: 1.81 µM; IC50 [5]: 0.88 µM; times more potent in SH-SY5Y lysate relative to HepG2 lysate [5]: 2.1 times
24 | C[C@H](NCc1ccc(OCc2cccc(F)c2)cc1)C(N)=O [Safinamide, reference compound] |  |  |  | enzyme activity recovered after repeated washing (MAO-A) ([3]; after repeated washing): more than 80%; inhibition at 0.1 µM [3, 8]: 9.8%; inhibition at 0.1 µM [3, 9]: 36.1%; reversibility of MAO-A inhibition [3]: reversible; enzyme activity recovered after repeated washing (MAO-B) ([4]; after repeated washing): more than 80%; reversibility of MAO-B inhibition [4]: reversible
